Laboratory results from article PMC7029132, “The pentose phosphate pathway of cellulolytic clostridia relies on 6-phosphofructokinase instead of transaldolase” (The Journal of Biological Chemistry, 2019).

Biological target: T1, rabbit aldolase (Oryctolagus cuniculus, UniProt P00883)
T1 construct: gene ALDOA; commercial native enzyme (Sigma A8811)
T1 sequence (P00883 2-364): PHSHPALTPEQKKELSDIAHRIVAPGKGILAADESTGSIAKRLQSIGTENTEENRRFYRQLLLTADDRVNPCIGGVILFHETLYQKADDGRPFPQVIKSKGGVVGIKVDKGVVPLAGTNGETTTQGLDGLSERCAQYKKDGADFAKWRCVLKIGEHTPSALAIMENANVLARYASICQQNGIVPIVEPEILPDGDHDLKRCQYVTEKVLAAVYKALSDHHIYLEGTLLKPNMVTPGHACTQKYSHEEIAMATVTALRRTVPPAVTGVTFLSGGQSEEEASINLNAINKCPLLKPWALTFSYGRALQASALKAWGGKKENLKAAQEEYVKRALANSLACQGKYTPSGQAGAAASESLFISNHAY
Assay: LC-MS time course of E4P and DHAP formation, SBP made in situ by PPi-PFK
Assay type: biochemical
Conditions: 100 mM Tris-HCl pH 7 at 55 °C, 5 mM MgCl2, 5 mM PPi, 1 mM S7P, 4 units aldolase

SMILES: O=C(COP(=O)(O)O)[C@@H](O)[C@H](O)[C@H](O)[C@H](O)COP(=O)(O)O [SBP]
- LC-MS time course of E4P and DHAP formation, SBP made in situ by PPi-PFK: rabbit aldolase was able to convert the formed SBP to E4P and DHAP
